The conditions of assay [1]: patients who discontinued ICS and LABA, 12 weeks; placebo 41%; cited from earlier work.
Assay [2] relates to ILC2 population in human PBMC. In words: ILC2 cell population in human PBMC culture (flow cytometry). Format: cell-based. On the set-up: key: −: no inhibition; +: weak; ++: moderate; +++: strong inhibition. To be noted: IL-2 (10 unit/mL) and three alarmins (10 ng/ml), 5 days. The text has this:
(§1) While alarmins are known to work in concert to enhance ILC2 and Th2 cell functions such as increase in cell population, steroids such as Dexamethasone (Dex) can negate these effects, resulting in the mitigation of type 2 immune responses [Jia, Yi et al. American Journal Of Respiratory Cell And Molecular Biology, vol. 55, 5 (2016): 675-683]. ILC2 and Th2 cell population can be determined by flow cytometry (BD FACSVerse) following standard procedures known to those skilled in the art.
For orientation: Flow cytometry measures light scatter and fluorescence of single cells or particles in a stream.

Assay [3] relates to Th2 cell population in human PBMC. The assay is described as follows: Th2 cell population in human PBMC culture (flow cytometry). To be noted: IL-2 (10 unit/mL) and three alarmins (10 ng/ml), 5 days. Format: cell-based. On the set-up: key: −: no inhibition; +: weak; ++: moderate; +++: strong inhibition.
Description: as §1

Take “Dupilumab: anti-IL-4Ra antibody inhibiting both IL-4 and IL-13 responses [reference compound]”: in assay [1], the “rate of loss of asthma control” value is 19%.
In the case of `C[C@@H]1C[C@H]2[C@@H]3CCC4=CC(=O)C=C[C@]4(C)[C@@]3(F)[C@@H](O)C[C@]2(C)[C@@]1(O)C(=O)CO` [Dex, Dexamethasone, reference compound], the “Cell proliferation inhibition, ILC2” value in assay [2] is “+”. The “Cell proliferation inhibition, Th2” value in assay [3] was “+++”.

The values are drawn from patent US20240409647A1, “BISPECIFIC BINDING PROTEINS AGAINST ALARMINS AND USES THEREOF” (SINOMAB BIOSCIENCE LIMITED, priority 2022, published 2024).
